# Experiments:
# [1] = biological target: T1, Metabotropic glutamate receptor 5 (Homo sapiens, UniProt P41594); experiment: In vitro potency against calcium flux in Ltk cells expressing human recombinant metabotropic glutamate receptor 5 using fluorescence detection; assay type: cell-based
# [2] = biological target: T1, Metabotropic glutamate receptor 5; experiment: In vitro potency against calcium flux in Ltk cells expressing human recombinant metabotropic glutamate receptor 5 using fluorescence detection; not active at 10 uM; assay type: cell-based
# [3] = Half-life (2 mg/kg, i.v.) was determined in Sprague-Dawley rats; assay type: ADME, organism-based; conditions: rat, in vivo, iv
# [4] = Plasma clearance (2 mg/kg, i.v.) was determined in Sprague-Dawley rats; assay type: ADME, organism-based; conditions: rat, iv, read-out: Clp
# [5] = Bioavailability (10 mg/kg, p.o.) in Sprague Dawley rats; assay type: ADME, organism-based; conditions: rat, in vivo, po
# [6] = Volume of distribution (2 mg/kg, iv.) was determined in Sprague Dawley rats; assay type: ADME, organism-based; conditions: rat, in vivo
# [7] = Bioavailability (10 mg/kg, p.o.) was determined in Sprague Dawley rats; assay type: ADME, organism-based; conditions: rat, in vivo, po
# [8] = Volume of distribution (2 mg/kg, iv.) was determined in Sprague Dawley rats; not determined; assay type: ADME, organism-based; conditions: rat, in vivo
# Rattus norvegicus = experiment: In vivo receptor occupancy was determined in rats following intravenous dosage at 10 mg/kg; assay type: functional
# T1 sequence (P41594 whole entry): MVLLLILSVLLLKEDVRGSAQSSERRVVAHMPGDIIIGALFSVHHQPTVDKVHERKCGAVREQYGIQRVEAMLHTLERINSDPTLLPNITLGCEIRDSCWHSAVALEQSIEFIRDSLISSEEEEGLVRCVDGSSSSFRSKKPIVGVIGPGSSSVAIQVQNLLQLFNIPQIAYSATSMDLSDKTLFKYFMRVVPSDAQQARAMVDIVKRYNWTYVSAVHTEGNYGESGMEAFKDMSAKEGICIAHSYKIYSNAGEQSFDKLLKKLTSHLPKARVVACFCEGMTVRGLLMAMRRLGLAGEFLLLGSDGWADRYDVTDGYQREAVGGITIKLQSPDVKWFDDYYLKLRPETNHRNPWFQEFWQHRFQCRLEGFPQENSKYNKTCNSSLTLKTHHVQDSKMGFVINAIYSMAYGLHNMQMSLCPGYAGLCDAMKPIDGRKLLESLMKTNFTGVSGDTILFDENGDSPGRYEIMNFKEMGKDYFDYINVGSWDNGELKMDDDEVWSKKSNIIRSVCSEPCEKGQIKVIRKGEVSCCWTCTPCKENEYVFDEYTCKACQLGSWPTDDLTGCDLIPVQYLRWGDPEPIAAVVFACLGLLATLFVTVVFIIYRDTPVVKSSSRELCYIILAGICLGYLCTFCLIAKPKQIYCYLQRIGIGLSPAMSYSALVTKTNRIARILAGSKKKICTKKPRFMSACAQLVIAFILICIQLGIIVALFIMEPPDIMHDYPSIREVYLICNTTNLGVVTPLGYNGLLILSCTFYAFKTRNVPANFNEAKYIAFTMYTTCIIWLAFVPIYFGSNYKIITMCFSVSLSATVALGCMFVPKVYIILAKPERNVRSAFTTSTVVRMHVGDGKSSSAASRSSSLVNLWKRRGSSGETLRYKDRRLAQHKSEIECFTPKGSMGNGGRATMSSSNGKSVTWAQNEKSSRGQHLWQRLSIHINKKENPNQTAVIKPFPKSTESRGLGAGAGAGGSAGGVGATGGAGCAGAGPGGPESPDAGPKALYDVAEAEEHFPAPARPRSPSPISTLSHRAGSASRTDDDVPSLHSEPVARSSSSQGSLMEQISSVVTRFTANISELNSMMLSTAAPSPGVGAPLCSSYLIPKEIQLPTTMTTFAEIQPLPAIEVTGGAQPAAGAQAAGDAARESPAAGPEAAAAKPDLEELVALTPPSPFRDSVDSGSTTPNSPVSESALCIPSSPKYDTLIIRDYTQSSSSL
smiles,measurement,setting,value
Cc1cccc(Nc2ncccc2OC(C)C)n1,IC50,[1],1 µM
CCOc1cc(-c2ccc(C)cc2)cnc1Nc1cccc(C)n1,IC50,[1],0.513 µM
CSc1cccnc1Nc1cccc(C)n1,IC50,[1],0.79 µM
CCOc1ncccc1Nc1cccc(C)n1,IC50,[2],Not Active
Cc1cccc(Nc2ncccc2C)n1,IC50,[2],Not Active
CCOc1cc(-c2cccnc2)cnc1Nc1cccc(C)n1,half-life,[3],1 h
same,IC50,[1],0.012 µM
same,clearance,[4],50 mL/min/kg
same,bioavailability,[5],38%
CCOc1cc(-c2ccsn2)cnc1Nc1cccc(C)n1,IC50,[1],0.243 µM
Cc1cccc(Nc2ncccc2OCc2ccccc2)n1,IC50,[1],0.87 µM
CCOc1cccnc1Nc1ccccn1,half-life,[3],0.8 h
same,IC50,[1],0.138 µM
same,Vd,[6],2.9 L/kg
same,clearance,[4],78 mL/min/kg
same,bioavailability,[5],16%
CCOc1cc(-c2cccnc2C#N)cnc1Nc1cccc(C)n1,IC50,[1],0.08 µM
Cc1cccc(Nc2ncccc2-c2cccnc2)n1,IC50,[2],Not Active
CCCOc1cccnc1Nc1cccc(C)n1,IC50,[1],1.6 µM
COc1cccnc1Nc1cccc(C)n1,IC50,[1],0.458 µM
CCOc1cccnc1Nc1cccc(C)n1,half-life,[3],2.1 h
same,IC50,[1],0.04 µM
same,Vd,[6],1.2 L/kg
same,bioavailability,[7],11%
same,clearance,[4],16 mL/min/kg
CCOc1cc(-c2ccccn2)cnc1Nc1cccc(C)n1,half-life,[3],1 h
same,IC50,[1],0.193 µM
same,Vd,[6],6.1 L/kg
same,clearance,[4],124 mL/min/kg
same,bioavailability,[5],0%
CCOc1cccnc1Nc1cccc(C(F)(F)F)n1,IC50,[1],1.9 µM
COc1cccc(F)c1Nc1cccc(C)n1,IC50,[2],Not Active
COC(=O)c1cccnc1Nc1cccc(C)n1,IC50,[2],Not Active
Cc1cccc(Nc2ncccc2C#N)n1,IC50,[2],Not Active
Cc1cccc(Nc2ncccc2O)n1,IC50,[2],Not Active
CCOc1cc(-c2ccccc2)cnc1Nc1cccc(C)n1,IC50,[1],0.267 µM
CCOc1cc(-c2cccc(F)c2)cnc1Nc1cccc(C)n1,half-life,[3],0.5 h
same,IC50,[1],0.126 µM
same,Vd,[6],3 L/kg
same,clearance,[4],93 mL/min/kg
same,bioavailability,[5],19%
CCOc1c(C)ccnc1Nc1cccc(C)n1,IC50,[1],2.7 µM
CCOc1cc(Oc2cccnc2)cnc1Nc1cccc(C)n1,half-life,[3],1.2 h
same,Vd,[8],3.7 L/kg
same,IC50,[1],0.018 µM
same,clearance,[4],52 mL/min/kg
same,Receptor occupancy,Rattus norvegicus,82%
CCOc1cc(C)cnc1Nc1cccc(C)n1,IC50,[1],0.119 µM
CCOc1cc(-c2cncnc2)cnc1Nc1cccc(C)n1,half-life,[3],0.6 h
same,Vd,[8],2.3 L/kg
same,IC50,[1],0.036 µM
same,clearance,[4],79 mL/min/kg
same,bioavailability,[5],67%
same,Receptor occupancy,Rattus norvegicus,79%
CCOc1cc(Cl)cnc1Nc1cccc(C)n1,IC50,[1],0.017 µM
CCOc1cccnc1Nc1cccc(C(=O)OC)n1,IC50,[1],6.2 µM
Cc1cccc(Nc2ncccc2-c2ccccc2)n1,IC50,[2],Not Active
CCOc1ccc(C)nc1Nc1cccc(C)n1,IC50,[2],Not Active
CCOc1cc(-c2cnccc2C)cnc1Nc1cccc(C)n1,half-life,[3],0.7 h
same,Vd,[8],4.7 L/kg
same,IC50,[1],0.045 µM
same,clearance,[4],105 mL/min/kg
same,bioavailability,[5],8%
CCCc1cccnc1Nc1cccc(C)n1,half-life,[3],1 h
same,IC50,[1],0.394 µM
same,clearance,[4],320 mL/min/kg
CCOc1ccccc1Nc1cccc(C)n1,IC50,[2],Not Active
CCOc1nccnc1Nc1cccc(C)n1,half-life,[3],1 h
same,IC50,[1],0.497 µM
same,clearance,[4],102 mL/min/kg
CCNc1cccnc1Nc1cccc(C)n1,IC50,[1],3 µM
CCOc1cc(C#N)cnc1Nc1cccc(C)n1,half-life,[3],1.6 h
same,IC50,[1],0.046 µM
same,Vd,[6],7 L/kg
same,clearance,[4],90 mL/min/kg
same,bioavailability,[5],13%
CCOc1cc(Br)cnc1Nc1cccc(C)n1,IC50,[1],0.047 µM
CCOc1cc(-c2ccccc2C#N)cnc1Nc1cccc(C)n1,IC50,[1],0.037 µM
CCOc1cccnc1Nc1cccc(OC)n1,IC50,[1],0.556 µM

# Reference: ChEMBL document CHEMBL1141067, “Dipyridyl amines: potent metabotropic glutamate subtype 5 receptor antagonists” (Bioorg Med Chem Lett, 2005)
